Where two headings read alike, the source gives them in different places.
How the values were obtained:
Assay type in all cases: biochemical
[1] = target: T1, isopenicillin N epimerase (Streptomyces clavuligerus, UniProt P18549); experiment: Epimerase activity assay (product formation from isopenicillin N / penicillin N, quantitated by HPLC after o-phthaldialdehyde derivatization)
T1 construct: Approximately 250 g of frozen whole cells of S. clavuligerus were thawed and homogenated; made in house; host or cells: Streptomyces clavuligerus NRRL 18491 (native producer; the endogenous enzyme was purified from cell-free extract, not made recombinantly)
T1 sequence (P18549 1-398): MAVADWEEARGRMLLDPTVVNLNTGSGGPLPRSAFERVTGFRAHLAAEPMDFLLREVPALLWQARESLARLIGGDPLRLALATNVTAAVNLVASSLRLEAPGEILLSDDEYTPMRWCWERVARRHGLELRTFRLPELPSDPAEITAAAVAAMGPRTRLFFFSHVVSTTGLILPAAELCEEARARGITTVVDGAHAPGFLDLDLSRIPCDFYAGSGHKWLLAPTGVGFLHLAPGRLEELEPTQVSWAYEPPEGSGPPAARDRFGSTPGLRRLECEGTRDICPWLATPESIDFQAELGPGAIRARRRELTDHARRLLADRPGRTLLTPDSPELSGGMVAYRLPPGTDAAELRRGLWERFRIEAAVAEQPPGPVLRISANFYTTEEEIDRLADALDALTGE
Method: The epimerase activity was determined by the product formation using isopenicillin N and penicillin N as substrates. Formation of isopenicillin N and penicillin N was quantitated by HPLC. […] The reaction mixture was incubated at 37°C for 20 min. The reaction was terminated by placing the reaction vessel in boiling water for 10 min, immediately cooling the reaction mixture with ice, and then filtering the cold mixture through a 0.45 µm filter.
The derivatives were then analyzed by HPLC. The assay samples were prepared for HPLC as follows. The assay filtrate, obtained as described above, 20 µl was mixed with 5 µl of a derivatizing reagent consisting of 4 mg of o-phthaldialdehyde dissolved in 300 µl of methanol, 250 µl of 0.4 M sodium borate, pH 9.4, 390 µl of water and 60 µl of 1 M N-acetyl-L-cysteine, adjusted to pH 5-6 with sodium hydroxide. After a 2 min reaction time, 200 µl of 50 mM sodium acetate, pH 5.0, were added to the mixture and 50 µl aliquots were used for HPLC analysis.

[2] = target: T1, isopenicillin N epimerase; experiment: Conversion to apoenzyme with hydroxylamine / reduction with sodium borohydride, then activity
Method: PLP bound to the epimerase was measured by the known phenylhydrazine method and an average value of one mole of PLP per 47,000 g of enzyme was obtained. The haloenzyme was converted to the apoenzyme by incubation at 0°C for 60 min with 10 mM potassium phosphate, pH 7.0, containing 10 mM hydroxylamine followed by gel filtration. The hydroxylamine treated epimerase expressed no activity in the absence of exogenous PLP and the absorption maximum at 420 nm disappeared (FIG. 1, curve 2). The epimerase activity was restored by the addition of PLP to the apoenzyme. The apparent Michelis constant for PLP was determined to be 2.4 µM.
The absorption spectra shown in FIG. 1 of the drawings were obtained as follows. The epimerase (haloenzyme), curve 1, was treated with 10 mM hydroxylamine (apoenzyme), curve 2, or was reduced with 1 mM sodium borohydride, curve 3. After removal of hydroxylamine or sodium borohydride by gel filtration, absorption spectra were run in 10 mM potassium phosphate, pH 7.0, at the enzyme concentration of 0.57 mg/ml with an Aminco DW-2000 spectrophotometer.

[3] = target: T1, isopenicillin N epimerase; experiment: Fluorescamine titration of hydroxylamine-treated epimerase with activity assay of aliquots; settings: fluorescamine/epimerase ratio of 35 mole/mole
Method: Fluorescamine reacts with primary amino groups, such as the α-amino group of the N-terminal amino residue and the ε-amino groups of lysine in the enzyme to form fluorescent products with maximum excitation and emission wavelength of 390 nm and 475 nm, respectively.
The emission fluorescence of fluorescamine treated epimerase shown in FIG. 2 of the drawings was obtained as follows. The epimerase (0.5 mg/ml) was incubated in 10 mM potassium phosphate, pH 7.0, containing 10 mM hydroxylamine at 0°C for 60 min. After removal of hydroxylamine by gel filtration, the treated enzyme (0.16 mg/ml) in 10 mM potassium phosphate, pH 7.0, was titrated with the indicated amounts of fluorescamine (50 mM) dissolved in dry acetone at 25°C. The sample was excited at 390 nm and the emission fluorescence was followed at 475 nm. […] Simultaneously, aliquots of the enzyme solution were withdrawn and activity for isopenicillin N was assayed. The assay results (% activity) are shown on the curve labeled "●" in FIG. 2.

[4] = compound as epimerase substrate at 1.4 mM, Isopenicillin N = 100, read-out: Relative Activity (%)
[5] = compound as epimerase substrate at 1.4 mM, Isopenicillin N = 100

Which “effect on activity of epimerase” value [1] does the source give for O[C@H](CS)[C@H](O)CS (racemic) [Dithiothreitol] here?
The value was “partially stimulated”.

And the Activity ([1]; sulfhydryl compound at 0.2 mM)?
The Activity was 290 µmol/min/mL.

What about the Activity ([1]; sulfhydryl compound at 0.5 mM) of the same molecule?
The Activity was 300 µmol/min/mL.

How did the Activity [1, 4] turn out when CC(C)[C@@H](NC(=O)[C@H](CS)NC(=O)CCC[C@H](N)C(=O)O)C(=O)O [ACV, δ-(L-α-aminoadipoyl)-L-cysteinyl-D-valine] was run?
Its Activity is 0%.

For Nc1ncnc2c1ncn2[C@@H]1O[C@H](COP(=O)(O)OP(=O)(O)OP(=O)(O)O)[C@@H](O)[C@H]1O [ATP, Adenosine Triphosphate], which Activity ([1]; Table 4, compound at 1 mM) is on record?
The Activity was 208 µmol/min/mL.

Which Activity [1, 4] does the source give for CC(=O)OCC1=C(C(=O)O)N2C(=O)[C@@H](NC(=O)CCC[C@@H](N)C(=O)O)[C@H]2SC1 [Ceph C, cephalosporin C] here?
Its Activity is 0%.

For CC(C)(COP(=O)(O)OP(=O)(O)OC[C@H]1O[C@@H](n2cnc3c(N)ncnc32)[C@H](O)[C@@H]1OP(=O)(O)O)[C@@H](O)C(=O)NCCC(=O)NCCS [CoA, Coenzyme A], which Activity ([1]; Table 4, compound at 1 mM) is on record?
The Activity was 202 µmol/min/mL.

With N[C@H](CCCC(=O)O)C(=O)O [D-Amino adipic acid] as the molecule, how does the Activity [1, 4] read?
Its Activity is 0%.

With N[C@@H]1CONC1=O [D-Cycloserine] as the molecule, how does the inhibition at 1000 µM ([1]; compound at 1.0 mM) read?
The inhibition at 1000 µM was 23%.

For N[C@H](CCCC(=O)N[C@@H]1C(=O)N2C(C(=O)O)=C(CO)CS[C@H]12)C(=O)O [DAC, Deacetylcephalosporin C], which “Relative Activity (%)” value [1, 5] is on record?
The value was 0%.

Which Activity [1, 4] does the source give for CC1=C(C(=O)O)N2C(=O)[C@@H](NC(=O)CCC[C@@H](N)C(=O)O)[C@H]2SC1 [DAOC, Deacetoxycephalosporin C (3-cephem)] here?
Its Activity is less than 1%.

What does the source list for Cc1cc2nc3c(=O)[nH]c(=O)nc-3n(C[C@H](O)[C@H](O)[C@H](O)COP(=O)(O)OP(=O)(O)OC[C@H]3O[C@@H](n4cnc5c(N)ncnc54)[C@H](O)[C@@H]3O)c2cc1C [FAD, Flavin-Adenine Dinucleotide]?
Activity ([1]; Table 4, compound at 0.5 mM): 42 µmol/min/mL; inhibition at 500 µM ([1]; compound at 0.5 mM): 80%

O=S(=O)([O-])[O-].[Fe+2] [FeSO4] was tested. Which Activity ([1]; Table 4, compound at 0.1 mM) did it give?
The Activity was 150 µmol/min/mL.

Which results are given for NO [Hydroxylamine]?
Inhibition (%) ([1]; compound at 0.1 mM): 80%; Inhibition (%) ([1]; compound at 1.0 mM): 95%; epimerase activity after treatment ([2]; 10 mM hydroxylamine, 0°C, 60 min, gel filtration, absence of exogenous PLP): no activity

NC(=O)CI [Iodoacetamide] was tested. Which inhibition at 1000 µM ([1]; compound at 1.0 mM) did it give?
Its inhibition at 1000 µM is 28%.

CC(C)NNC(=O)c1ccncc1 [Iproniazid] was tested. Which inhibition at 1000 µM ([1]; compound at 1.0 mM) did it give?
Its inhibition at 1000 µM is 25%.

CC1=CSC2C(NC(=O)CCCC(N)C(=O)O)C(=O)N2C1C(=O)O (stereo not shown) [IsoDAOC, Isodeacetoxycephalosporin C (2-cephem)] was tested. Which “Relative Activity (%)” value [1, 5] did it give?
The value was 0%.

NNC(=O)c1ccncc1 [Isoniazid] was tested. Which inhibition at 1000 µM ([1]; compound at 1.0 mM) did it give?
The inhibition at 1000 µM was 23%.

CC1(C)S[C@@H]2[C@H](NC(=O)CCC[C@H](N)C(=O)O)C(=O)N2[C@H]1C(=O)O [Isopenicillin N] was tested. Which Activity [1, 4] did it give?
Its Activity is 100%.

Which Activity [1, 4] does the source give for N[C@@H](CCCC(=O)O)C(=O)O [L-Amino adipic acid] here?
The Activity was 0%.

Which inhibition at 100 µM ([1]; compound at 0.1 mM) does the source give for CCN1C(=O)C=CC1=O [N-Ethylmaleimide] here?
The inhibition at 100 µM was 26%.

And the inhibition at 1000 µM ([1]; compound at 1.0 mM)?
Its inhibition at 1000 µM is 45%.

CC(=O)N[C@@H](CS)C(=O)O [N-acetyl-L-cysteine] was tested. Which Activity ([1]; sulfhydryl compound at 0.2 mM) did it give?
Its Activity is 224 µmol/min/mL.

What about the Activity ([1]; sulfhydryl compound at 0.5 mM) of the same molecule?
Its Activity is 190 µmol/min/mL.

With NC(=O)C1=CN([C@@H]2O[C@H](COP(=O)(O)OP(=O)(O)OC[C@H]3O[C@@H](n4cnc5c(N)ncnc54)[C@H](O)[C@@H]3O)[C@@H](O)[C@H]2O)C=CC1 [NADH, Reduced Nicotinamide Adenine Dinucleotide] as the molecule, how does the Activity ([1]; Table 4, compound at 1 mM) read?
The Activity was 184 µmol/min/mL.

Which “apparent Michelis constant for PLP” value ([1]; PLP added to the apoenzyme (hydroxylamine treated)) does the source give for Cc1ncc(COP(=O)(O)O)c(C=O)c1O [PLP, pyridoxal-5′-phosphate] here?
Its value is 2.4 µM.

CC1(C)S[C@@H]2[C@H](NC(=O)CCC[C@@H](N)C(=O)O)C(=O)N2[C@H]1C(=O)O [Penicillin N] was tested. Which Activity [1, 4] did it give?
The Activity was 204%.

Which inhibition at 1000 µM ([1]; compound at 1.0 mM) does the source give for O=CC(=O)c1ccccc1 [Phenylglyoxal] here?
The inhibition at 1000 µM was 33%.

O=C1OC2(OC=C(c3ccccc3)C2=O)c2ccccc21 (stereo not shown) [fluorescamine] was tested. Which epimerase activity remaining [3] did it give?
The epimerase activity remaining was “about 80%”.

With O=S(=O)(F)Cc1ccccc1 [phenylmethylsulfonyl fluoride] as the molecule, how does the “effect on activity of epimerase” value [1] read?
The value was “do not affect”.

How did the “catalytic activity after reduction” value ([2]; reduction of haloenzyme with sodium borohydride (1 mM), PLP did not restore activity) turn out when [BH4-].[Na+] [sodium borohydride] was run?
Its value is “destroyed catalytic activity”.

Which “effect on activity of epimerase” value [1] does the source give for OCCS [β-mercaptoethanol] here?
Its value is “partially stimulated”.

What about the Activity ([1]; sulfhydryl compound at 0.2 mM) of the same molecule?
The Activity was 275 µmol/min/mL.

And the Activity ([1]; sulfhydryl compound at 0.5 mM)?
The Activity was 281 µmol/min/mL.

Reference: patent publication EP0403172A2, “Purified enzyme and process therefor” (OKLAHOMA STATE UNIVERSITY, priority 1989, dated 1990)
